US8372967B2, “Compounds and methods for modulating expression of GCCR” (Isis Pharmaceuticals, Inc., priority 2006, dated 2013)
Strand notation (5' to 3'): a small letter for the sugar, then the base; units joined by * are phosphorothioate-linked, units joined directly phosphodiester-linked; [ ] holds rarer units or linkages, { } end groups; capitals alone tell only the bases. e = 2'-O-(2-methoxyethyl) (MOE); l = locked nucleic acid (LNA); [5mC] = 5-methylcytosine; d = 2'-deoxy (DNA)

Experiments:
monkey GCGR mRNA = assay: Antisense inhibition of GCGR in primary monkey hepatocytes (Table 80); format: cell-based; conditions: relative to untreated control cells
Description: Additional short antisense compounds targeted to a GCGR nucleic acid were tested for their effects on monkey GCGR mRNA in vitro. Cultured primary monkey hepatocytes were treated as described herein with 25, 50, 100 or 200 nM of short antisense compound. After the treatment period, RNA was isolated from the cells and GCGR mRNA levels were measured by quantitative real-time PCR, as described herein. GCGR mRNA levels were adjusted according to total RNA content as measured by RIBOGREEN®. Results are presented in Table 80 as percent reduction in GCGR mRNA, relative to untreated control cells.

PTEN mRNA = PTEN mRNA levels in liver, kidney and fat, Balb/c mice, single i.p. 8 μmol/kg (Table 48); format: in vivo, mouse; conditions: 72 h, saline = 100
From the text: Each dose group consisted of four animals. Shown in Table 46 are the sequences and motifs of the PTEN antisense compounds used in this study. Bolded residues indicate 2′-O-methoxyethyl moieties (2′-MOE) and italicized residues indicate Methyleneoxy BNA nucleotides. Each antisense compound comprises phosphorothioate linkages throughout. In addition, the cytosine residues in the gap of ISIS 384073 and in the wings of ISIS 392056, ISIS 392057, ISIS 392061 and ISIS 392063 are replaced with 5-methylcytosines. Antisense compounds target published PTEN nucleic acids, including Genbank Accession No. U92437.1 (SEQ ID
Mice were sacrificed 72 hours following injection to determine serum transaminase levels (Table 47); liver and spleen weights (Table 47); and PTEN mRNA levels in liver, kidney and fat (Table 48), according to procedures described herein and well know to one of ordinary skill in the art.

[1] = HbA1c status in ZDF rat (Table 72); format: in vivo; conditions: ZDF rat, 400 nM/kg i.p. once a week
Description: ISIS 388625, 388626 and control oligo ISIS 388628 were analyzed for their effect on ZDF rat plasma glucose levels and HbA1c. The leptin receptor deficient Zucker diabetic fatty (ZDF) rat is a useful model for the investigation of type 2 diabetes. Diabetes develops spontaneously in these male rats at ages 8-10 weeks, and is associated with hyperphagia, polyuria, polydipsia, and impaired weight gain, symptoms which parallel the clinical symptoms of diabetes (Phillips M S, et al., 1996, Nat Genet. 13, 18-19). Six week old ZDF rats were injected intraperitoneally with short antisense compound at a dose of 400 nM/kg once a week for twelve weeks. Data are illustrated in Tables 71 and 72.

GCGR mRNA = GCGR mRNA levels in liver and estimated ED50, C57/BL6 mice, single i.p. dose of MOE and methyleneoxy BNA gapmers (Tables 44, 45); format: in vivo, mouse; conditions: liver
Description: Eight-week old male C57/BL6 mice (Jackson Laboratory, Bar Harbor, Me.) were administered a single dose of GCGR antisense compound by intraperitonel (i.p.) injection at a concentration of 10, 3.2, 1, and 0.32 μmol·kg. Each dose group consisted of four animals. Shown in Table 43 are the sequences, motifs and conjugates of the GCGR antisense compounds used in this study. Bolded residues indicate 2′-O-methoxyethyl (2′-MOE) modifications and the italicized residues indicate methyleneoxy (4′-CH2—O-2′) BNA modifications. All antisense compounds comprise phosphorothioate internucleoside linkages throughout and each cytosine is replaced with 5-methylcytosine. GCGR antisense compounds target published GCGR nucleic acids, including Genbank Accession No. BC031885.1 (SEQ ID NO: 7).
To determine whether the phenotypic changes shown above correlated with a decrease in GCGR mRNA, treated animals were evaluated for levels of target mRNA in liver by RT, real time PCR according to methods described herein. Table 44 show results from direct comparisons of the antisense compounds targeting GCGR nucleic acid for their effect on target expression. Results are expressed as percent of saline control.

mouse SGLT2 mRNA [2] = assay: Mouse SGLT2 mRNA in kidney, additional 1-10-1 and 2-8-2 MOE gapmers (Table 68); format: in vivo; conditions: Balb/c mouse kidney
Description: 1-10-1 and 2-8-2 MOE gapmer short antisense compounds were designed to target different regions of the mouse SGLT2 RNA but have complementarity across species. […] All cytidine residues are 5-methylcytidines.
The short antisense compounds were analyzed for their effect on mouse SGLT2 mRNA levels in vivo. Data was taken from three experiments in which male 6-week old Balb/c mice were dosed twice per week for three weeks with 0.5, 0.1, or 0.02 umol/kg of either a 1-10-1 or 2-8-2 MOE gapmer given by intraperitoneal injection. Mice were sacrificed 48 hours following last administration and evaluated for SGLT2 levels in kidney. Target levels were determined by RT, real-time PCR as described by other examples herein. PCR results were normalized to an internal ISIS control.

rat SGLT2 mRNA [3] = assay: Rat SGLT2 mRNA in kidney, 1-10-1 and 1-10-2 MOE gapmers, Sprague-Dawley rats (Table 63); format: in vivo
From the text: 1-10-1 and 1-10-2 MOE gapmer antisense compounds, provided in Table 62, were designed to target different regions of the mouse or rat SGLT2 RNA. All short antisense compounds in Table 62 are chimeric oligonucleotides (“gapmers”) either 12 or 13 nucleotides in length, composed of a central “gap” segment consisting of ten 2′-deoxynucleotides, which are flanked on the 5′ side by a one-nucleoside “wing” and on the 3′ side by a two or one-nucleotide “wing”. […] All cytidine residues are 5-methylcytidines.
The short antisense compounds were analyzed for their effect on rat SGLT2 mRNA levels. Data are ranges taken from three experiments in which Male Sprague-Dawley rats (170-200 g) were dosed twice per week for three weeks with 450, 150 or 50 nmol/kg of either a 1-10-1 or 1-10-2 MOE gapmer given by intraperitoneal injection. Rats were sacrificed 48 hours following last administration and evaluated for SGLT2 mRNA levels in kidney. Target levels were determined by RT, real-time PCR as described by other examples herein. PCR results were normalized to an internal ISIS control.

mouse SGLT2 mRNA [4] = assay: Mouse SGLT2 mRNA in kidney, 1-10-1 MOE gapmers, Balb/c mice (Table 65); format: in vivo
Description: The short antisense compounds were analyzed for their effect on mouse SGLT2 mRNA levels. Data was taken from three experiments in which Male 6-week old Balb/c mice were dosed twice per week for two weeks with 450, 150, or 50 nmol/kg of one of the above 1-10-1 MOE gapmers given by intraperitoneal injection. Mice were sacrificed 48 hours following last administration and evaluated for SGLT2 mRNA levels in kidney. Target levels were determined by RT, real-time PCR as described by other examples herein. PCR results were normalized to an internal ISIS control.

rat SGLT2 mRNA [5] = assay: Rat SGLT2 mRNA in kidney, 1-10-1 gapmers, 250 nmol/kg (Table 66); format: in vivo; conditions: for % change in SGLT2 expression relative to saline: 250 nmol/kg i.p. twice per week for three weeks, Sprague-Dawley rat kidney
Description: The effect of the above 1-10-1 gapmers (see Table 64 above) on rat SGLT2 mRNA levels. Data are taken from four experiments in which male Sprague-Dawley rats (170-200 g) were dosed twice per week for three weeks with 250 nmol/kg given by intraperitoneal injection. Rats were sacrificed 48 hours following last administration and evaluated for SGLT2 mRNA levels in kidney. Target levels were determined by RT, real-time PCR as described by other examples herein. PCR results were normalized to an internal ISIS control.

[6] = 0.02 umol/kg i.p. twice per week for three weeks
[7] = 0.1 umol/kg i.p. twice per week for three weeks
[8] = 0.5 umol/kg i.p. twice per week for three weeks
[9] = 50 nmol/kg i.p. twice per week for two weeks
[10] = 150 nmol/kg i.p. twice per week for two weeks
[11] = 450 nmol/kg i.p. twice per week for two weeks

327131 (antisense eA*eT*eG*dT*dT*dG*dG*d[5mC]*d[5mC]*dG*dT*eG*eG*eT) [compound 327131]
percent reduction in GCGR mRNA (monkey GCGR mRNA; 25 nM): 0%
percent reduction in GCGR mRNA (monkey GCGR mRNA; 50 nM): −8%
percent reduction in GCGR mRNA (monkey GCGR mRNA; 100 nM): −36%
percent reduction in GCGR mRNA (monkey GCGR mRNA; 200 nM): −36%

384073 (antisense lG*lC*lT*dA*dG*d[5mC]*d[5mC]*dT*d[5mC]*dT*dG*dG*dA*lT*lT*lT) [compound 384073]
% PTEN mRNA levels in Fat (PTEN mRNA): 77%
% PTEN mRNA levels in Kidney (PTEN mRNA): 74%
% PTEN mRNA levels in Liver (PTEN mRNA): 24%

388625 (eT*eG*dT*dT*d[5mC]*d[5mC]*dA*dG*d[5mC]*d[5mC]*e[5mC]*eA) [compound 388625]
Percentage HbA1c ([1]; Day 40): 6.5%
Percentage HbA1c ([1]; Day 55): 5.8%
Percentage HbA1c ([1]; Day 68): 4.3%

388628 (eT*eA*dG*d[5mC]*d[5mC]*dG*d[5mC]*d[5mC]*d[5mC]*dA*e[5mC]*eA) [compound 388628]
Percentage HbA1c ([1]; Day 40): 8.0%
Percentage HbA1c ([1]; Day 55): 9.1%
Percentage HbA1c ([1]; Day 68): 7.8%

396145 (ATGGCTTCTCCATCATATCC; 5-10-5 MOE gapmer, chemistry not fully specified) [compound 396145]
GCGR mRNA levels (GCGR mRNA; 3.2 μmol/kg single i.p.): 33% of saline control
GCGR mRNA levels (GCGR mRNA; 10 μmol/kg single i.p.): 8% of saline control

396147 (CTTGGGCATGCTCGTCAGTC; 5-10-5 MOE gapmer, chemistry not fully specified) [compound 396147]
GCGR mRNA levels (GCGR mRNA; 3.2 μmol/kg single i.p.): 68% of saline control
GCGR mRNA levels (GCGR mRNA; 10 μmol/kg single i.p.): 28% of saline control

ISIS 379699: GGCATGAGCTTC 1-10-1 MOE, SGLT2 (eG*dG*d[5mC]*dA*dT*dG*dA*dG*d[5mC]*dT*dT*e[5mC])
% change in SGLT2 expression relative to saline (mouse SGLT2 mRNA [2]; [6]): −30%
% change in SGLT2 expression relative to saline (mouse SGLT2 mRNA [2]; [7]): −60%
% change in SGLT2 expression relative to saline (mouse SGLT2 mRNA [2]; [8]): −75%
% change in SGLT2 expression relative to saline (rat SGLT2 mRNA [3]; 50 nmol/kg i.p. twice per week for three weeks): −60%
% change in SGLT2 expression relative to saline (rat SGLT2 mRNA [3]; 150 nmol/kg i.p. twice per week for three weeks): −75%
% change in SGLT2 expression relative to saline (rat SGLT2 mRNA [3]; 450 nmol/kg i.p. twice per week for three weeks): −83%
% change in SGLT2 expression relative to saline (mouse SGLT2 mRNA [4]; [9]): −42.5%
% change in SGLT2 expression relative to saline (mouse SGLT2 mRNA [4]; [10]): −62.5%
% change in SGLT2 expression relative to saline (mouse SGLT2 mRNA [4]; [11]): −80%
% change in SGLT2 expression relative to saline (rat SGLT2 mRNA [5]): −75%

ISIS 379702 (eG*d[5mC]*dA*d[5mC]*dA*d[5mC]*dA*dG*d[5mC]*dT*dG*e[5mC])
% change in SGLT2 expression relative to saline (mouse SGLT2 mRNA [2]; [6]): −40%
% change in SGLT2 expression relative to saline (mouse SGLT2 mRNA [2]; [7]): −65%
% change in SGLT2 expression relative to saline (mouse SGLT2 mRNA [2]; [8]): −70%
% change in SGLT2 expression relative to saline (mouse SGLT2 mRNA [4]; [9]): −52.5%
% change in SGLT2 expression relative to saline (mouse SGLT2 mRNA [4]; [10]): −72.5%
% change in SGLT2 expression relative to saline (mouse SGLT2 mRNA [4]; [11]): −75%
% change in SGLT2 expression relative to saline (rat SGLT2 mRNA [5]): −25%

ISIS 381408: 1-10-1 MOE gapmer targeting SGLT2 mRNA (TACCGAACACCT; sugars from the 5' end e1 d10 e1, backbone and methylation of C not given here)
% change in SGLT2 expression relative to saline (rat SGLT2 mRNA [5]): −5%
expression of SGLT2 in in vivo rat studies (rat SGLT2 mRNA [5]; 250 nmol/kg twice per week for three weeks): Activity of ISIS 381408 has been shown
